Laboratory results: patent US5789439A, “Pharmaceutical use of forskolin derivatives” (Nippon Kayaku Kabushiki Kaisha, priority 1990, dated 1998)
Counter-ions that a name gives are not always drawn.

Assays:
Type in all cases: cell-based
[1] = tested on: NB-1 cells (a human neuroblastoma strain); assay: Differentiation inducing effect for NB-1 cells; design: key: -: none; ±: slight (<20%); +: medium (20-80%); ++: heavy (>80%); settings: 4-hour incubation
Protocol: The differentiation inducing effect for the NB-1 cells (a human neuroblastoma strain: cell strain derived from neuroblastoma generated in infantile adrenal gland) was examined. The NB-1 cells were applied to a 96-well plate at a rate of 2×10^3 cells/well and precultured for 3 days. After attachment and growth were stabilized, the medium (RPMI 1640+10% fetal calf serum+SM.PC) was exchanged and a 10 μl solution of each test compound was added. Then, the cells were kept under constant observation to determine the occurrence or non-occurrence of differentiation. 2 mM (1.037 mg/ml) of dibutyryl cAMP dissolved in RPMI 1640 was used as positive control. NKH-477 and 14,15-dihydro-6-(3-dimethylaminopropionyl)forskolin hydrochloride were dissolved in a physiological saline. Forskolin was dissolved in DMSO and diluted with a physiological saline. The criterion for judgment of morphological change in differentiation is as follows. The figures in the parentheses are the ratio of the differentiated cells to the whole cells. It was confirmed that DMSO was totally devoid of differentiation inducing and promoting action at the concentrations used in this test.

[2] = tested on: collagen-induced aggregation of rabbit blood thrombocyte; assay: Collagen-induced platelet aggregation inhibition, rabbit platelet rich plasma; settings: Oryctolagus cuniculus, Platelet; rabbit PRP, collagen 10 μg/ml; mean, n = 5; read-out: Platelet aggregation inhibitory action (IC50), Collagen-induced aggregation
Protocol: (§1) The platelet aggregation inhibitory action of NKH-477 was examined on collagen-induced aggregation and ADP-induced aggregation of rabbit blood thrombocyte. The male Japanese white rabbits (body weight: 2.4-2.8 kg, procured from Tokyo Experimental Animals Co., Ltd.) were divided into groups of 5. The rabbits were etherized and blood was collected from the carotid artery of each rabbit. A 3.8% sodium citrate solution (final concentration: 0.38%) was added to a portion of blood collected from each group of rabbits to obtain platelet rich plasma (PRP). The remaining portion of blood was centrifuged at 3,000 r.p.m. for 15 minutes to obtain platelet poor plasma (PPP). First, permeability of PRP and PPP was determined by using an aggregometer (RMA-31 mfd. by Rika Denki Kogyo K. K.) and set at 0% and 100%, respectively. Separately from the above operation, 250 μl of PRP was placed in a cuvette and after preliminary heating at 37° C. for 2 minutes, 20 μl of specimen was added and incubated under stirring for 2 minutes. Then 10 μl of ADP (Sigma, final conc.: 3×10^-6 M) or collagen (Hormon-Chemie, final conc.: 10 μg/ml) was added and the transmission rate was measured. The maximum transmission rate observed in this operation was termed as the maximum aggregation rate. Recording in this operation was conducted on an ink-written recorder (B-381L mfd. by Rika Denki Kogyo K. K.). NKH-477 was dissolved in a physiological saline to make concentrations of 10^-8 to 10^-5 M. Forskolin dissolved in ethanol was used as control.

[3] = tested on: ADP-induced aggregation of rabbit blood thrombocyte; assay: ADP-induced platelet aggregation inhibition, rabbit platelet rich plasma; settings: Oryctolagus cuniculus, rabbit PRP, ADP 3×10^-6 M, mean, n = 5, read-out: Platelet aggregation inhibitory action (IC50), ADP-induced aggregation
Protocol: as §1, with “NKH-477 was dissolved in a physiological saline to make concentrations of 10^-8 to 10^-5 M. Forskolin dissolved in ethanol was used as control.” left out

SMILES | Effect (differentiation inducing) ([1]; Dose 1.56 μM) | Effect (differentiation inducing) ([1]; Dose 6.25 μM) | Effect (differentiation inducing) ([1]; Dose 25.00 μM) | Effect (differentiation inducing) ([1]; Dose 100.00 μM) | Effect (differentiation inducing) ([1]; Dose 2000.0 μM) | IC50 [2] [µM] | IC50 [3] [µM]
CC[C@@]1(C)CC(=O)[C@]2(O)[C@@]3(C)[C@@H](O)CCC(C)(C)[C@@H]3[C@H](OC(=O)CCN(C)C)[C@H](OC(C)=O)[C@@]2(C)O1 [14,15-dihydro-6-(3-dimethylaminopropionyl)forskolin hydrochloride] | ± (slight (<20%)) | ± (slight (<20%)) | ++ (heavy (>80%)) | ++ (heavy (>80%)) |  |  | 
CCCC(=O)Nc1ncnc2c1ncn2[C@@H]1O[C@@H]2COP(=O)(O)O[C@H]2[C@H]1OC(=O)CCC [Dibutyryl cAMP, dibutyryl cAMP, reference compound] |  |  |  |  | + (medium (20-80%)) |  | 
C=C[C@@]1(C)CC(=O)[C@]2(O)[C@@]3(C)[C@@H](O)CCC(C)(C)[C@@H]3[C@H](O)[C@H](OC(C)=O)[C@@]2(C)O1 [Forskolin] | - | - | ± (slight (<20%)) | + (medium (20-80%)) |  | 3.09 | 6.03
